Experimental data as given in patent US20180318291A1, “USE OF AMINOTHIAZOLE MYD88 SPECIFIC INHIBITOR TJM2010-5” (WUHAN INNAMUNE PHARMACEUTICAL INC. LTD., priority 2015, published 2018).

Assays:
C57bl/6 mice kidney IRI = assay: renal ischemia reperfusion injury in mice; format: in vivo
Experimental: 1. Groups: General C57bl/6 group (Control), CMC vehicle group, MYD88KO group, TJ-M2010 group, the 8 mice in each group will be provided with treatment of ischemia reperfusion: narcotize, block the left kidney with vascular clamp, and place them in incubator of 31 C° for 80 min; after that, open it and remove the right kidney, and then close the abdomen. Collect blood 24 hours later to conduct BUN, Cr detection.
2. For TJM2010-5 group and CMC group, provide intraperitoneal injection of TJ-M2010-5 dissolved in 0.5% CMC of 150 mg/kg/d on the day before and the day of operation; for CMC group: inject 0.5% CMC solution of 200 μl.
3. Observe the survival time of mice, and make the survival curve. Send the blood specimen to the pathology department for detection of BUN, Cr.

mice with pyohemia = assay: pyohemia / septicopyemia lethal experiment (cecal ligation and puncture); format: in vivo; settings: CLP; 250 mg/kg intragastric 4 times every 12 h; FIG. 15(b)
Experimental: Part two: Observe the effect of MyD88 inhibitor on mortality of mice with pyohemia. The mice will be randomly divided into: sham-operation group, model group, MyD88 inhibitor treatment group. Except for the mice in sham-operation group that only receive post-operative suture, the mice in pyohemia model group and MyD88 inhibitor treatment group are provided with the cecal ligation and puncture (CLP), to copy the pyohemia mice model. At 1 h after operation, apply intragastric administration of 0.5% CMC 200 μL or TJM2010-5 of 250 mg/kg (200 μL) for 4 times successively, and each time lasts for 12 h. After operation, observe the survival rate of mice in each group every 12 h, and for 72 h successively.

## O=C(CCN1CCN(Cc2ccccc2)CC1)Nc1nc(-c2ccccc2)cs1 [TJM2010-5, 3-(4-benzylpiperazin-1-yl)-N-(4-phenylthiazol-2-yl) propanamide]
C57bl/6 mice kidney IRI; 150 mg/kg/d intraperitoneal day before and day of operation, FIG. 6
  survival rate after mice kidney IRI: significantly improve
C57bl/6 mice kidney IRI; 150 mg/kg/d intraperitoneal, blood 24 hours later, FIG. 7
  protection of kidney functions (BUN, Cr): better protection effect
Mice with pyohemia
  death time and final mortality of pyohemia in mice: significantly improve
